Paper PMC11189555, “Aryl amino acetamides prevent Plasmodium falciparum ring development via targeting the lipid-transfer protein PfSTART1” (Nature Communications, 2024)

System: SLI-N330K parasites
Assay: Growth inhibition assay (72 h, LDH activity)
Format: cell-based, Plasmodium falciparum
Protocol: Parasite growth assays with inhibitory compounds were performed as per[11] and are fully described in the Supplementary Information.
Molecular biology and transfection of P. falciparum: Selection Linked Integration […]
To introduce the PfSTART1 mutations, the second half of the coding sequence of pfstart1 (PF3D7_0104200), was recodonised without introns to the bias of Saccharomyces cerevisiae containing either WT, N309K or N330K mutations, and synthesised as gBlock fragments (Integrated DNA Technologies). The first 819 bp of the 5′ native sequence of pfstart1 was amplified from gDNA, to form the 5’ homology block (5’ HB). The 3′ recodonised gBlock fragment comprising of the last 552 bp of either the WT, N309K or N330K pfstart1 to form the ‘recodon’ block (primers listed in Table S2). The 5’ HB and recodon products were sewn together by overlapping PCR to reconstitute the full coding sequence of pfstart1. These blocks (WT/N309K/N330K) were digested with BglII/PstI, and inserted into the parasite vector p-HA-2A-Neo-glmS
1. This plasmid contains an in -frame haemagglutinin (HA) epitope for protein identification and a P2A peptide (2A) to skip continuous peptide bond synthesis of a downstream neomycin resistance gene ( NeoR).
Parasites containing the transfected DNA were selected using 2.5 nM WR99210 (Jacobus). To select for parasites in which single crossover integration had occurred into the pfstart1 locus, parasites were treated with 400 μg/mL G418 (geniticin, Sigma Aldrich) for 14 days: only parasites that have integrated the construct into their genome expressed the neomycin resistance gene together with the PfSTART1 protein.
Parasite lines were cloned using limiting dilution. These clones were then tested on Western Blot (for correct HA-tagging and protein size), and correct integration and sequence were tested by PCR analysis: PCR on the gDNA was conducted using the primers START_5’UTR.F and START_Seq.R (Table S2). […]
Growth inhibition assays. Synchronised ring-stage parasites (0.3-0.6% parasitemia, 2% haematocrit) were grown for 72 h in a serial-dilution of the compound under […]
and compound 4. Note that M-833 was first purchased from MolPort (MolPort -002-267-916) then made in-house at WEHI: the differences observed in EC50s across experiments are attributed to the different batches of M -833. For some experiments, 0, 0.25 or 2.5 mM of glucosamine (GlcN) was also added. Experiments were set up in technical duplicates or triplicates. Following a freeze -thaw cycle, lactate dehydrogenase (LDH) activity was assessed as an indicator of parasite growt h 5. 30 μL of parasite culture was incubated for 30 min in the dark with 75 μL Malstat mixture (0.1 M Tris pH 9.0, 20 g/L lactic acid, pH 7.5, 0.2% Triton-X100, 0.5 g/L acetylpyridine adenine dinucleotide (APAD, Sigma), 200 μg/mL nitroblue tetrazolium (NBT; Sigma), 1 μg/mL phenozine ethosulfate (PES; Sigma)). Absorbance was then measured at 650 nm, transformed using the formula below, plotted against the logarithm of the concentrations, and a non-linear regression (log(inhibitor) vs. response, variable slope) was calculated using GraphPad Prism to assess the half-inhibitory […]
Growth inhibition % = (1 − average(sample)− average(uRBC)) ∗ 100 […]
The DMSO samples were also used to assess growth of parasite in the presence of 0.25 and 2.5 mM GlcN (normalised by DMSO in 0 mM GlcN).
Egress, invasion & recovery assay. To measure egress, invasion and follow up recovery in the presence of different compounds, we adapted the method developed in6, using Hyp1-Nluc parasites7. These parasites episomally express the exported PEXEL protein Hyp1 (PF3D7_0113300) tagged with a NanoLuc luciferase (NLuc) and were selected with 2.5 nM WR99210 (Jacobus). Highly synchronised schizonts were obtained using ML10 (LifeArc) and sorbitol synchronisation, and Percoll-purified (the culture was gently layered over 67% Percoll (Cytiva) in RPMI, and centrifuged for 15 min at 1500 g and the schizont layer was collected and washed). […]

Structure (SMILES): Cc1cc(Cl)c(S(=O)(=O)N2CCCC2)cc1OCC(=O)NC1CCCCC1 [M-833]
- sample/DMSO (0.00152416 uM M-833, START(N330K), 0 mM GlcN, biological replicate 2): 1.655
- sample/DMSO (0.00152416 uM M-833, START(N330K), 0.25 mM GlcN, biological replicate 1): -2.909
- sample/DMSO (0.00152416 uM M-833, START(N330K), 0.25 mM GlcN, biological replicate 2): 8.825
- sample/DMSO (0.00152416 uM M-833, START(N330K), 2.5 mM GlcN, biological replicate 1): 11.1758
- sample/DMSO (0.00457247 uM M-833, START(N330K), 0 mM GlcN, biological replicate 1): 3.2212
- sample/DMSO (0.00457247 uM M-833, START(N330K), 0 mM GlcN, biological replicate 2): 9.585
- sample/DMSO (0.00457247 uM M-833, START(N330K), 0 mM GlcN, biological replicate 3): 4.929
- sample/DMSO (0.00457247 uM M-833, START(N330K), 0 mM GlcN, biological replicate 4): -5.471
- sample/DMSO (0.00457247 uM M-833, START(N330K), 0.25 mM GlcN, biological replicate 1): 0.8993
- sample/DMSO (0.00457247 uM M-833, START(N330K), 0.25 mM GlcN, biological replicate 2): 9.092
- sample/DMSO (0.00457247 uM M-833, START(N330K), 0.25 mM GlcN, biological replicate 3): -0.2009
- sample/DMSO (0.00457247 uM M-833, START(N330K), 0.25 mM GlcN, biological replicate 4): -11.7886
- sample/DMSO (0.00457247 uM M-833, START(N330K), 2.5 mM GlcN, biological replicate 1): 14.0279
- sample/DMSO (0.00457247 uM M-833, START(N330K), 2.5 mM GlcN, biological replicate 2): 17.9639
- sample/DMSO (0.00457247 uM M-833, START(N330K), 2.5 mM GlcN, biological replicate 3): -5.165
- sample/DMSO (0.00457247 uM M-833, START(N330K), 2.5 mM GlcN, biological replicate 4): -8.571
- sample/DMSO (0.0137174 uM M-833, START(N330K), 0 mM GlcN, biological replicate 1): 7.141
- sample/DMSO (0.0137174 uM M-833, START(N330K), 0 mM GlcN, biological replicate 2): 7.124
- sample/DMSO (0.0137174 uM M-833, START(N330K), 0 mM GlcN, biological replicate 3): -3.262
- sample/DMSO (0.0137174 uM M-833, START(N330K), 0 mM GlcN, biological replicate 4): 6.3139
- sample/DMSO (0.0137174 uM M-833, START(N330K), 0.25 mM GlcN, biological replicate 1): 1.512
- sample/DMSO (0.0137174 uM M-833, START(N330K), 0.25 mM GlcN, biological replicate 2): 8.325
- sample/DMSO (0.0137174 uM M-833, START(N330K), 0.25 mM GlcN, biological replicate 3): 2.478
- sample/DMSO (0.0137174 uM M-833, START(N330K), 0.25 mM GlcN, biological replicate 4): 0
- sample/DMSO (0.0137174 uM M-833, START(N330K), 2.5 mM GlcN, biological replicate 1): 15.7451
- sample/DMSO (0.0137174 uM M-833, START(N330K), 2.5 mM GlcN, biological replicate 2): 11.3968
- sample/DMSO (0.0137174 uM M-833, START(N330K), 2.5 mM GlcN, biological replicate 3): -4.719
- sample/DMSO (0.0137174 uM M-833, START(N330K), 2.5 mM GlcN, biological replicate 4): -3.372
- sample/DMSO (0.0411523 uM M-833, START(N330K), 0 mM GlcN, biological replicate 1): 8.934
- sample/DMSO (0.0411523 uM M-833, START(N330K), 0 mM GlcN, biological replicate 2): 2.634
- sample/DMSO (0.0411523 uM M-833, START(N330K), 0 mM GlcN, biological replicate 3): 5.053
- sample/DMSO (0.0411523 uM M-833, START(N330K), 0 mM GlcN, biological replicate 4): -9.704
- sample/DMSO (0.0411523 uM M-833, START(N330K), 0.25 mM GlcN, biological replicate 1): 4.325
- sample/DMSO (0.0411523 uM M-833, START(N330K), 0.25 mM GlcN, biological replicate 2): -8.575
- sample/DMSO (0.0411523 uM M-833, START(N330K), 0.25 mM GlcN, biological replicate 3): -3.728
- sample/DMSO (0.0411523 uM M-833, START(N330K), 0.25 mM GlcN, biological replicate 4): -6.829
- sample/DMSO (0.0411523 uM M-833, START(N330K), 2.5 mM GlcN, biological replicate 1): 19.2666
- sample/DMSO (0.0411523 uM M-833, START(N330K), 2.5 mM GlcN, biological replicate 2): 13.1689
- sample/DMSO (0.0411523 uM M-833, START(N330K), 2.5 mM GlcN, biological replicate 3): 1.449
- sample/DMSO (0.0411523 uM M-833, START(N330K), 2.5 mM GlcN, biological replicate 4): -4.731
- sample/DMSO (0.123457 uM M-833, START(N330K), 0 mM GlcN, biological replicate 1): 11.901
- sample/DMSO (0.123457 uM M-833, START(N330K), 0 mM GlcN, biological replicate 2): 1.439
- sample/DMSO (0.123457 uM M-833, START(N330K), 0 mM GlcN, biological replicate 3): 5.443
- sample/DMSO (0.123457 uM M-833, START(N330K), 0 mM GlcN, biological replicate 4): 0.2691
- sample/DMSO (0.123457 uM M-833, START(N330K), 0.25 mM GlcN, biological replicate 1): 10.3138
- sample/DMSO (0.123457 uM M-833, START(N330K), 0.25 mM GlcN, biological replicate 2): 8.225
- sample/DMSO (0.123457 uM M-833, START(N330K), 0.25 mM GlcN, biological replicate 3): 5.9375
